Here are results for one substance from patent US20210386792A1, “A METHOD FOR INCREASING POPULATION OF SPERMATOGONIAL STEM CELLS” (priority 2018, published 2021).

Assay [1] relates to EGR-1. In words: EGR-1 expression in DS-iPS EC. Format: cell-based, human.
For assay [2], the system named is LiECs. Briefly: GDNF ELISA in conditioned media from LiECs. To be noted: mouse LiECs. Format: cell-based. Here is the method: Testis, lung, or liver ECs were plated (10,000 cells ml^−1) on 12 well dishes coated with 0.1% gelatin and cultured for 24 hours. Conditioned media was harvested at 24 and 48 hours after FGF-2 (2 ng ml^−1, 20 ng ml^−1 and 50 ng ml^−1) treatment and analyzed by ELISA for GDNF (Promega GDNF Emax immunoassay system, #G7621) following the manufacturer's instruction. Statistics was analyzed using Graph Pad Prism. For quantification of Gdnf mRNA, total RNA was isolated from the cells using Direct-zol RNA MiniPrep (Zymo Research) and reverse transcribed using High Capacity cDNA Reverse Transcription Kit (Appliedbiosystems), according to the manufacturer's instructions. All gene expression levels were normalized to GAPDH mRNA levels.
FIG. 2. a. Quantication of GDNF by ELISA in conditioned media from TECs, LuECs and LiECs after treatment with the indicated concentration of FGF-2 for 2 days, n=3. Bar=100 μm. Data are presented as the mean±s.e.m. b. Representative brighteld (BF) and GFP images of 2D cultures of GFP+ SSCs co-cultured with STO cells or TECs plus exogenous GDNF and FGF-2 on days 1 and 8 after seeding. Quantication of stem cell numbers 8 days after co-culture with STO or TECs and the average colony area are shown on the right, n=3. Data are presented as the mean±s.e.m. Bar=100 μm. *P<0.05. c. […]
Background: An ELISA detects its analyte on a solid surface through an enzyme-linked reagent.

The subject of assay [3] is EGR-1. In words: Western blot of EGR-1 expression in TECs. Format: cell-based, mouse. To be noted: TEC. The text has this:
FIG. 5. GDNF expression in TECs is regulated by CaN-NFAT signaling. a. Immunouorescence images of testis sections immunostained with the stem cell markers DDX4 and Oct4 and DAPI to stain DNA. Testes were harvested from 1-week-old or 4-week-old Euploid or Ts65Dn mice. Quantication of DDX4+ and Oct4+ cells relative to DAPI per high-powered eld (HPF) is shown on the right, ***P<0.0001. Bar=50 μm. Two-way ANOVA test. b. […] Values are mean±s.e.m. n=4. c. Quantication of GDNF levels by ELISA in conditioned media from murine TECs, LuEC and LiEC after 2 ngml-1 FGF-2 treatment in the presence or absence of CsA. Values are mean±s.e.m., n=4. d. H&E-stained cross-sections from testes of age-matched Euploid, Ts65Dn or Ts65Dn mice 5 weeks after implantation with GFP+ TECs isolated from syngeneic wild-type mice (Ts65Dn+GFP+ TECs). Red dotted line encircles mature sperm (yellow arrow) in the lumen of the seminiferous tubules. Immunouorescence images with GFP and DAPI to stain DNA of testis sections from Ts65Dn+GFP+TECs mice. e. Western blot analysis of EGR-1 protein expression in TECs and LuECs untreated or after FGF-2 treatment, expression of constitutively active NFATc1 (caNFATc1) or an empty vector control. Actin was probed as a loading control. f. Quantication of nuclear translocation of EGR1 and NFATc1 in TECs after treatment with conditioned media (CM), 2 ng ml-1 FGF-2±CsA. Values are mean±s.e.m. g. […]
In general terms: In western blotting, separated proteins are transferred to a membrane and probed.

For fibroblast growth factor-2 [FGF-2], the “EGR-1 expression after FGF treatment” value in assay [1] is “minimal EGR-1 expression”. In addition, the “GDNF production in conditioned media of LiECs after FGF-2 treatment” value in assay [2] was “not”. Moreover, the “EGR-1 expression after FGF-2 treatment” value in assay [3] is given as “increased EGR-1 expression”.
